Measurements reported in patent US11185076B2 (priority 2017, dated 2021).
Where two headings read alike, the source gives them in different places.

Assays:
[1] = test system: Chinese cabbage soft rot bacteria (Erwinia carotovora subsp. carotovora); test: Control test on Chinese cabbage soft rot (soil incorporation test); type: in vivo; conditions: for phytotoxicity: Chinese cabbage plant (cultivar: Muso); for control effect on the Chinese cabbage soft rot (in words): whole soil incorporation at the time of planting
Source text: Granules containing 3% of tolprocarb (a) (trade name; Sanblas (registered trademark) granules (manufactured by Mitsui Chemical Agro Co., Ltd.)), granules containing 5% of pyroquilon (b) (trade name; Coratop (registered trademark) granules (manufactured by Mitsui Chemical Agro Co., Ltd.)), granules containing 1.5% of simeconazole (fungicidal component) (trade name; Mongalite (registered trademark) granules (manufactured by Mitsui Chemical Agro Co., Ltd.)) and flowable containing 20% of penthiopyrad (fungicidal component) were respectively incorporated or were incorporated in combination into a pot soil in a predetermined amount. Then, the Chinese cabbage was planted in the pot soil. At 14 days after chemical agent treatment, the Chinese cabbage soft rot was inoculated. […] Thereafter, the inoculated plantes were put in a 25° C. greenhouse to promote infection for 2 days, and the control effect was examined. The infection was examined by the degree of infection, and the disease severity index was calculated based on the degree of infection. The control value was calculated from the disease severity index.
Severity index=((the number of leaves of infection index 0×0)+(the number of leaves of infection index 1×1)+(the number of leaves of infection index 2×2)+(the number of leaves of infection index 3×3)/(the number of leaves examined×3)×100
(§1) The synergistic effect was calculated from the following Colby's equation. Synergistic effect (expected value)=(control value of compound A+control value of compound B)−(control value of compound A×control value of compound B)/100
(§2) When the control value exceeded the expected value in the case of mixing the compounds and applying the mixed product, it was determined that there was a synergistic effect.

[2] = test system: tomato yellow leaf curl disease (TYLCV); test: Control test on tomato yellow leaf curl disease (TYLCV) (soil drench test); type: in vivo, tomato yellow leaf curl virus; conditions: for phytotoxicity: tomato (cultivar: Sekai-ichi); for control effect on tomato yellow leaf curl disease (TYLCV) (in words): treatment on 7 day before inoculation
Method: Granules containing 3% of tolprocarb (a) (trade name; Sanblas (registered trademark) granules (manufactured by Mitsui Chemical Agro Co., Ltd.)), granules containing 5% of pyroquilon (b) (trade name; Coratop (registered trademark) granules (manufactured by Syngenta Japan Ltd.)) and granules containing 1% of dinotefran (trade name; Starkle (registered trademark) granules (manufactured by Mitsui Chemicals Agro Co., Ltd.)) were respectively treated or were treated in combination to plant foot of tomato in a predetermined amount. Seven days after chemical agent treatment, the plants were inoculated by sucking of one adult of TYLCV-carrying tobacco whitefly biotype Q per plant for 3 days. Thereafter, the inoculated plants were put in the greenhouse to promote infection, and the control effect was examined after the infection. The infection was examined by the degree of infection, and the disease severity index was calculated based on the degree of infection. The control value was calculated from the disease severity index.
1: observation of initial infection (delayed infection)
2: observation of infection Severity index=((the number of plants of infection index 0×0)+(the number of plants of infection index 1×1)+(the number of plants of infection index 2×2)/(the number of plants examined×2))×100
as §1, §2

[3] = test system: cucumber mosaic virus (CMV); conditions: for Number of CMV Infected Plants: Acute wilt / Number of CMV Infected Plants: Mosaic / Number of CMV Infected Plants: No Infection: 5 plants; for Number of CMV Infected Plants: Acute wilt / Number of CMV Infected Plants: Mosaic / Number of CMV Infected Plants: No Infection / Control value / Disease Severity index: drench 3 days before inoculation, g ai/10a: (a) 90, (b) 150, dinotefuran 120, thiamethoxam 60, (h) 250, mixtures 90 + 120 and 150 + 60; for phytotoxicity: cucumber (cultivar: Sagami-hanjiro); for control effect on cucumber mosaic virus (CMV) (in words): treatment on 3 day before inoculation
Rice Streak Virus (RSV) = test: Control test on rice streak virus (RSV) (field trial of nursery box application); type: in vivo, rice stripe virus; conditions: for phytotoxicity: rice (cultivar: Hinohikari)
Method: Rice seedlings (cultivar: Hinohikari) were grown in a greenhouse according to an ordinary procedure and transplanted to an open paddy field. Granules containing 4% of tolprocarb (a) and granules containing 6% of dinotefuran (insecticidal ingredient) formulated according to Formulation Example 2 were respectively treated or were treated in combination in 50 g per box in a nursery box on the day of transplantation. 35 days after transplantation, larvae of RSV-carrying small brown planthopper were released for one week to inoculate rice plants by sucking. At 79 days and 99 days after transplantation, the presence or absence of the unshooting of head was examined.

[4] = test system: cucumber mosaic virus (CMV); conditions: for Control value / Disease Severity index / Number of CMV Infected Leaves: Acute wilt / Number of CMV Infected Leaves: Mosaic / Number of CMV Infected Leaves: No Infection: drench 1 day before inoculation; for Number of CMV Infected Leaves: Acute wilt / Number of CMV Infected Leaves: Mosaic / Number of CMV Infected Leaves: No Infection: 3 checked; for phytotoxicity: cucumber (cultivar: Sagami-hanjiro)
[5] = test system: tomato powdery mildew (Oidium neolycopersici); test: Control test on tomato powdery mildew (soil incorporation test); type: in vivo
Method: A tomato powdery mildew control test was performed in a greenhouse. A plastic pots having a diameter of 20 cm were used for the test. As test chemical agents, granules containing 3% of tolprocarb (compound (a)) (trade name; Sanblas (registered trademark) granules (Mitsui Chemical Agro Inc.)) commercially available and granules containing 5% of pyroquilon (compound (b)) (trade name: Coratop (registered trademark) granules (manufactured by Syngenta Japan Co., Ltd.)) were mixed to soil on the entire surface of the pot in an amount equivalent to 3 kg/10a. Also, the simplified emulsifiable concentrate E(c) containing the compound (c) was suspended in the distilled water, and was irrigated onto the entire surface of the pot to be incorporated. As the comparative example, granules (trade name: Oryzemate (registered trademark) granules (Meiji Seika Pharma Co., Ltd.)) containing 8% of probenazole (comparative compound (h)) was mixed to soil on the entire surface of the pot in an amount equivalent to 3 kg/10a. Tomato (cultivar: Ohgata-fukuju) grown up to 4-leaf stage of true leaf was planted in a plastic pots having a diameter of 20 cm and were treated with chemical agents. Plants were grown in a glass greenhouse and naturally occurring tomato powdery mildew (Oidium neolycopersici) was examined one month after chemical agent treatment. In the examination, an infection index of six leaves per pot was examined to calculate disease severity index. The control value was calculated from the disease severity index.
The criteria for the degree of infection are as follows.
1: lesion area rate of less than 5%
2: lesion area rate from 5% to 25%
3: lesion area rate from 25% to 50%
The severity index was calculated from the following equation. Severity index=((the number of compound leaves of infection index 0×0)+(the number of compound leaves of infection index 1×1)+(the number of compound leaves of infection index 2×2)+(the number of compound leaves of infection index 3×3)+(the number of compound leaves of infection index 4×4/(the number of compound leaves examined×4))×100

[6] = Total of plots, g ai/10a: (a) 90, (b) 150, (c) 90, (h) 240
[7] = Total, one month after treatment, g ai/10a: (a) 90, (b) 150, (c) 90, (h) 240
[8] = plot I, g ai/10a: (a) 90, (b) 150, (c) 90, (h) 240
[9] = plot II, g ai/10a: (a) 90, (b) 150, (c) 90, (h) 240
[10] = plot III, g ai/10a: (a) 90, (b) 150, (c) 90, (h) 240

SMILES: CC(C)CC(C)c1sccc1NC(=O)c1cn(C)nc1C(F)(F)F (stereo not drawn) [penthiopyrad, reference compound]
- phytotoxicity [1]: not observed

SMILES: CN/C(=N/CC1CCOC1)N[N+](=O)[O-] (stereo not drawn) [Dinotefuran, dinotefuran]
- phytotoxicity [2]: not observed
- Number of CMV Infected Plants: Acute wilt [3]: 2
- Number of CMV Infected Plants: Mosaic [3]: 2
- Number of CMV Infected Plants: No Infection [3]: 1
- phytotoxicity [3]: not observed
- Control value [3]: 33.3
- Disease Severity index [3]: 60.0
- control effect on the rice stripe blight (RSV) (in words) (Rice Streak Virus (RSV); nursery box application): effect of delaying the occurrence of the unshooting of head
- phytotoxicity (Rice Streak Virus (RSV)): not observed

SMILES: CN1COCN(Cc2cnc(Cl)s2)/C1=N\[N+](=O)[O-] [Thiamethoxam, thiamethoxam]
- Number of CMV Infected Plants: Acute wilt [3]: 1
- Number of CMV Infected Plants: Mosaic [3]: 3
- Number of CMV Infected Plants: No Infection [3]: 1
- phytotoxicity [3]: not observed
- Control value [3]: 44.4
- Disease Severity index [3]: 50.0

SMILES: O=C1CCc2cccc3c2N1CC3 [Pyroquilon (b), pyroquilon]
- phytotoxicity [2]: not observed
- control effect on tomato yellow leaf curl disease (TYLCV) (in words) [2]: excellent control effect
- Number of CMV Infected Plants: Acute wilt [3]: 0
- Number of CMV Infected Plants: Mosaic [3]: 4
- Number of CMV Infected Plants: No Infection [3]: 1
- phytotoxicity [3]: not observed
- Control value [3]: 55.6
- Disease Severity index [3]: 40.0
- control effect on cucumber mosaic virus (CMV) (in words) [3]: excellent control effect
- phytotoxicity [1]: not observed
- control effect on the Chinese cabbage soft rot (in words) [1]: excellent control effect

SMILES: Cc1ccc(C(=O)NC[C@@H](NC(=O)OCC(F)(F)F)C(C)C)cc1 [Tolprocarb (a), tolprocarb]
- phytotoxicity [2]: not observed
- control effect on tomato yellow leaf curl disease (TYLCV) (in words) [2]: excellent control effect
- Number of CMV Infected Plants: Acute wilt [3]: 0
- Number of CMV Infected Plants: Mosaic [3]: 3
- Number of CMV Infected Plants: No Infection [3]: 2
- phytotoxicity [3]: not observed
- Control value [3]: 66.7
- Disease Severity index [3]: 30.0
- control effect on cucumber mosaic virus (CMV) (in words) [3]: excellent control effect
- phytotoxicity (Rice Streak Virus (RSV)): not observed
- Control value ([4]; 22.5 g ai/10a): 66.7
- Disease Severity index ([4]; 22.5 g ai/10a): 33.3
- Number of CMV Infected Leaves: Acute wilt ([4]; 22.5 g ai/10a): 1
- Number of CMV Infected Leaves: Mosaic ([4]; 22.5 g ai/10a): 0
- Number of CMV Infected Leaves: No Infection ([4]; 22.5 g ai/10a): 2
- Control value ([4]; 45 g ai/10a): 16.7
- Disease Severity index ([4]; 45 g ai/10a): 83.3
- Number of CMV Infected Leaves: Acute wilt ([4]; 45 g ai/10a): 2
- Number of CMV Infected Leaves: Mosaic ([4]; 45 g ai/10a): 1
- Number of CMV Infected Leaves: No Infection ([4]; 45 g ai/10a): 0
- Control value ([4]; 90 g ai/10a): 50.0
- Disease Severity index ([4]; 90 g ai/10a): 50.0
- Number of CMV Infected Leaves: Acute wilt ([4]; 90 g ai/10a): 1
- Number of CMV Infected Leaves: Mosaic ([4]; 90 g ai/10a): 1
- Number of CMV Infected Leaves: No Infection ([4]; 90 g ai/10a): 1
- phytotoxicity [4]: not observed
- control effect on cucumber mosaic virus (CMV) (in words) ([4]; treatment on 1 day before inoculation): excellent control effect
- phytotoxicity [1]: not observed
- control effect on the Chinese cabbage soft rot (in words) [1]: excellent control effect

SMILES: C[Si](C)(C)CC(O)(Cn1cncn1)c1ccc(F)cc1 (stereo not drawn) [simeconazole, reference compound]
- phytotoxicity [1]: not observed

SMILES: Cc1cccc2sc3nncn3c12 [Tricyclazole (c), tricyclazole]
- Infection index 0 (number of leaves) [5, 6]: 8
- Infection index 1 (number of leaves) [5, 6]: 8
- Infection index 2 (number of leaves) [5, 6]: 2
- Infection index 3 (number of leaves) [5, 6]: 0
- Infection index 4 (number of leaves) [5, 6]: 0
- Control value [5, 7]: 66.7
- Disease Severity index [5, 7]: 16.7
- Infection index 0 (number of leaves) [5, 8]: 0
- Infection index 1 (number of leaves) [5, 8]: 5
- Infection index 2 (number of leaves) [5, 8]: 1
- Infection index 3 (number of leaves) [5, 8]: 0
- Infection index 4 (number of leaves) [5, 8]: 0
- Infection index 0 (number of leaves) [5, 9]: 5
- Infection index 1 (number of leaves) [5, 9]: 1
- Infection index 2 (number of leaves) [5, 9]: 0
- Infection index 3 (number of leaves) [5, 9]: 0
- Infection index 4 (number of leaves) [5, 9]: 0
- Infection index 0 (number of leaves) [5, 10]: 3
- Infection index 1 (number of leaves) [5, 10]: 2
- Infection index 2 (number of leaves) [5, 10]: 1
- Infection index 3 (number of leaves) [5, 10]: 0
- Infection index 4 (number of leaves) [5, 10]: 0
- phytotoxicity ([5]; tomato (cultivar: Ohgata-fukuju), g ai/10a: (a) 90, (b) 150, (c) 90, (h) 240): not observed
- control effect on tomato powdery mildew (in words) ([5]; whole soil incorporation): excellent control effect

SMILES: CSC(=O)c1cccc2nnsc12 [Acibenzolar-S-methyl (i), acibenzolar S methyl, reference compound]
- Control value ([4]; 250 g ai/10a): 50.0
- Disease Severity index ([4]; 250 g ai/10a): 50.0
- Number of CMV Infected Leaves: Acute wilt ([4]; 250 g ai/10a): 0
- Number of CMV Infected Leaves: Mosaic ([4]; 250 g ai/10a): 3
- Number of CMV Infected Leaves: No Infection ([4]; 250 g ai/10a): 0
- phytotoxicity [4]: not observed

SMILES: C=CCOC1=NS(=O)(=O)c2ccccc21 [Probenazole (h), probenazole]
- Number of CMV Infected Plants: Acute wilt [3]: 0
- Number of CMV Infected Plants: Mosaic [3]: 2
- Number of CMV Infected Plants: No Infection [3]: 3
- phytotoxicity [3]: not observed
- Control value [3]: 77.8
- Disease Severity index [3]: 20.0
